{"source": "patent US8710055B2", "about": "“Triazolylphenyl sulfonamides as serine/threonine kinase inhibitors” (Boehringer Ingelheim International GmbH, priority 2010, dated 2014)", "data": [{"tested_on": "SK-MEL-28 cells (B-RAF V600E mutated)", "assay": "Inhibition of the proliferation of cultivated human melanoma cells (SK-MEL-28), AlamarBlue", "type": "cell-based", "settings": "72 h incubation", "description": "Measurement of the Inhibition of the Proliferation of Cultivated Human Melanoma Cells (SK-MEL-28, B-RAF^[…] Mutated)\nFor measuring the proliferation of cultivated human tumour cells, cells of the melanoma cell line SK-MEL-28 [from American Type Culture Collection (ATCC)] are cultivated in MEM medium, supplemented with 10% foetal calf serum, 2% sodium bicarbonate, 1 mM sodium pyruvate, 1% non-essential amino acids (e.g. from Cambrex, # BE13-114E) and 2 mM glutamine. SK-MEL-28 cells are placed in 96-well flat bottomed dishes in a density of 2500 cells per well in supplemented MEM medium (see above) and incubated overnight in an incubator (at 37° C. and 5% CO2). The active substances are added to the cells in different concentrations, so that a concentration range of 50 μM to 3.2 nM is covered. If necessary the initial concentration of 50 μM is changed to 10 μM or 2 μM and further dilution is carried out accordingly (up to 0.6 nM or 0.12 nM). After an incubation period of a further 72 h 20 μL AlamarBlue reagent (Serotec Ltd., # BUF012B) are added to each well and the cells are incubated for a further 3-6 h. The colour change of the AlamarBlue reagent is determined in a fluorescence spectrophotometer (e.g. Gemini, Molecular Devices). EC50 values are calculated using a software program (GraphPadPrizm).", "units": {"EC50": "nM"}, "values": [{"smiles": "CCCS(=O)(=O)Nc1ccc(F)c(-n2cc(-c3cncc(N4CCN(CC)CC4)c3)nn2)c1F", "note": "[Example I-1]", "EC50": 113}, {"smiles": "CCCS(=O)(=O)Nc1ccc(F)c(-n2cc(-c3cncc(N4CCC(N5CCOCC5)CC4)c3)nn2)c1F", "note": "[Example I-8]", "EC50": 305}, {"smiles": "CC(C)CS(=O)(=O)Nc1ccc(F)c(-n2cc(-c3cncc(N4CCN(C(C)(C)C)CC4)c3)nn2)c1F", "note": "[Example I-27]", "EC50": 96}, {"smiles": "CC(C)S(=O)(=O)Nc1ccc(F)c(-n2cc(-c3cncc(N4CCN(C)CC4)c3)nn2)c1F", "note": "[Example I-23]", "EC50": 459}, {"smiles": "CCCS(=O)(=O)Nc1ccc(F)c(-n2cc(-c3ccc(N)nc3)nn2)c1F", "note": "[Example I-5]", "EC50": 1640}, {"smiles": "O=S(=O)(Nc1ccc(F)c(-n2cc(-c3cncc(Br)c3)nn2)c1Cl)c1ccoc1", "note": "[Example I-70]", "EC50": 73}, {"smiles": "CCCS(=O)(=O)Nc1ccc(F)c(-n2cc(-c3cncc(N4CCN(CC)CC4)c3)nn2)c1Cl", "note": "[Example I-66]", "EC50": 55}, {"smiles": "CCCS(=O)(=O)Nc1ccc(F)c(-n2cc(-c3cncc(N4CCN(C(C)(C)C)CC4)c3)nn2)c1F", "note": "[Example I-9]", "EC50": 132}, {"smiles": "O=S(=O)(Nc1ccc(F)c(-n2cc(-c3cncc(N4CCN(C5CC5)CC4)c3)nn2)c1F)c1ccoc1", "note": "[Example I-60]", "EC50": 9}, {"smiles": "CCCS(=O)(=O)Nc1ccc(F)c(-n2cc(-c3cncc(N4CCN(C5CCOC5)CC4)c3)nn2)c1F", "note": "(centres unmarked) [Example I-58]", "EC50": 71}, {"smiles": "CCCS(=O)(=O)Nc1ccc(F)c(-n2cc(-c3cncc(N4CCN(CCOCC)CC4)c3)nn2)c1F", "note": "[Example I-3]", "EC50": 82}, {"smiles": "CC(C)S(=O)(=O)Nc1ccc(F)c(-n2cc(-c3cncc(N4CCN(CC5CC5)CC4)c3)nn2)c1F", "note": "[Example I-22]", "EC50": 231}, {"smiles": "CCCS(=O)(=O)Nc1ccc(F)c(-n2cc(-c3cncc(Br)c3)nn2)c1F", "note": "[Example I-7]", "EC50": 279}, {"smiles": "CC(C)N1CCN(c2cncc(-c3cn(-c4c(F)ccc(NS(=O)(=O)c5ccoc5)c4Cl)nn3)c2)CC1", "note": "[Example I-68]", "EC50": 6}, {"smiles": "CCCS(=O)(=O)Nc1ccc(F)c(-n2cc(-c3cncc(OC)c3)nn2)c1F", "note": "[Example I-2]", "EC50": 216}, {"smiles": "CCCS(=O)(=O)Nc1ccc(F)c(-n2cc(-c3cncc(N4CCN(C5CC5)CC4)c3)nn2)c1F", "note": "[Example I-18]", "EC50": 75}, {"smiles": "CC(C)CS(=O)(=O)Nc1ccc(F)c(-n2cc(-c3cncc(N4CCN(C(C)C)CC4)c3)nn2)c1F", "note": "[Example I-26]", "EC50": 98}, {"smiles": "CCCS(=O)(=O)Nc1ccc(F)c(-n2cc(-c3cncc(OC)c3)nn2)c1Cl", "note": "[Example I-75]", "EC50": 273}, {"smiles": "CCCS(=O)(=O)Nc1ccc(F)c(-n2cc(-c3cncc(OC4CCOCC4)c3)nn2)c1F", "note": "[Example I-33]", "EC50": 671}, {"smiles": "CCCS(=O)(=O)Nc1ccc(F)c(-n2cc(-c3cncc(N4CCN(CC#N)CC4)c3)nn2)c1F", "note": "[Example I-52]", "EC50": 153}, {"smiles": "COc1cncc(-c2cn(-c3c(F)ccc(NS(=O)(=O)c4cc(F)ccc4F)c3F)nn2)c1", "note": "[Example I-38]", "EC50": 363}, {"smiles": "C#CCN1CCN(c2cncc(-c3cn(-c4c(F)ccc(NS(=O)(=O)CCC)c4Cl)nn3)c2)CC1", "note": "[Example I-73]", "EC50": 44}, {"smiles": "CC(C)CS(=O)(=O)Nc1ccc(F)c(-n2cc(-c3cncc(N4CCN(C)CC4)c3)nn2)c1F", "note": "[Example I-24]", "EC50": 117}, {"smiles": "CC(C)N1CCN(c2cncc(-c3cn(-c4c(F)ccc(NS(=O)(=O)C(C)C)c4F)nn3)c2)CC1", "note": "[Example I-21]", "EC50": 314}, {"smiles": "CCCS(=O)(=O)Nc1ccc(Cl)c(-n2cc(-c3cncc(OC)c3)nn2)c1F", "note": "[Example I-39]", "EC50": 145}, {"smiles": "CCCS(=O)(=O)Nc1ccc(F)c(-n2cc(-c3cncc(N(C)CCN4CCOCC4)c3)nn2)c1F", "note": "[Example I-31]", "EC50": 1450}, {"smiles": "CCCS(=O)(=O)Nc1ccc(F)c(-n2cc(-c3cncc(N4CCOCC4)c3)nn2)c1F", "note": "[Example I-12]", "EC50": 201}, {"smiles": "O=S(=O)(Nc1ccc(F)c(-n2cc(-c3cncc(N4CCN(C5CC5)CC4)c3)nn2)c1Cl)c1ccoc1", "note": "[Example I-67]", "EC50": 4}, {"smiles": "CCCS(=O)(=O)Nc1ccc(F)c(-n2cc(-c3cnn(C)c3C)nn2)c1F", "note": "[Example I-14]", "EC50": 1720}, {"smiles": "CCCS(=O)(=O)Nc1ccc(F)c(-n2cc(-c3cncc(-n4cnc(C)c4)c3)nn2)c1F", "note": "[Example I-32]", "EC50": 114}, {"smiles": "COc1cncc(-c2cn(-c3c(F)ccc(NS(=O)(=O)CC4CC4)c3F)nn2)c1", "note": "[Example I-46]", "EC50": 480}, {"smiles": "O=S(=O)(Nc1ccc(F)c(-n2cc(-c3cncc(Cl)c3)nn2)c1Cl)c1ccoc1", "note": "[Example I-71]", "EC50": 61}, {"smiles": "CCCS(=O)(=O)Nc1ccc(F)c(-n2cc(-c3cncc(N4CCN(C(C)C)CC4)c3)nn2)c1Cl", "note": "[Example I-63]", "EC50": 44}, {"smiles": "CCS(=O)(=O)Nc1ccc(Cl)c(-n2cc(-c3cncc(OC)c3)nn2)c1F", "note": "[Example I-40]", "EC50": 327}, {"smiles": "CCCCS(=O)(=O)Nc1ccc(F)c(-n2cc(-c3cncc(OC)c3)nn2)c1F", "note": "[Example I-43]", "EC50": 432}, {"smiles": "CC(C)CS(=O)(=O)Nc1ccc(F)c(-n2cc(-c3cncc(N4CCN(CC5CC5)CC4)c3)nn2)c1F", "note": "[Example I-28]", "EC50": 88}, {"smiles": "CCCS(=O)(=O)Nc1ccc(F)c(-n2cc(-c3cncc(OC(C)C)c3)nn2)c1F", "note": "[Example I-34]", "EC50": 218}, {"smiles": "COCCS(=O)(=O)Nc1ccc(F)c(-n2cc(-c3cncc(N4CCN(C5CC5)CC4)c3)nn2)c1F", "note": "[Example I-56]", "EC50": 675}, {"smiles": "CCCS(=O)(=O)Nc1ccc(F)c(-n2cc(-c3cncnc3)nn2)c1F", "note": "[Example I-11]", "EC50": 506}, {"smiles": "CCCS(=O)(=O)Nc1ccc(F)c(-n2cc(-c3cncc(N(C)CCOC)c3)nn2)c1F", "note": "[Example I-30]", "EC50": 1230}, {"smiles": "COc1cncc(-c2cn(-c3c(F)ccc(NS(=O)(=O)c4cccnc4)c3F)nn2)c1", "note": "[Example I-42]", "EC50": 292}, {"smiles": "CCN1CCN(c2cncc(-c3cn(-c4c(F)ccc(NS(=O)(=O)c5ccoc5)c4Cl)nn3)c2)CC1", "note": "[Example I-74]", "EC50": 5}, {"smiles": "CCCS(=O)(=O)Nc1ccc(F)c(-n2cc(-c3cncc(N4CCN(C5COC5)CC4)c3)nn2)c1F", "note": "[Example I-51]", "EC50": 114}, {"smiles": "CCCS(=O)(=O)Nc1ccc(F)c(-n2cc(-c3cncc(-n4cc(C)nc4C)c3)nn2)c1F", "note": "[Example I-48]", "EC50": 545}, {"smiles": "CCCS(=O)(=O)Nc1ccc(F)c(-n2cc(-c3cnc(NC4CCN(CCOC)CC4)nc3)nn2)c1F", "note": "[Example I-13]", "EC50": 1020}, {"smiles": "CCCS(=O)(=O)Nc1ccc(F)c(-n2cc(-c3cncc(-n4cnc(C(F)(F)F)c4)c3)nn2)c1F", "note": "[Example I-57]", "EC50": 306}, {"smiles": "CCCS(=O)(=O)Nc1ccc(F)c(-n2cc(-c3ccc(NC(C)=O)nc3)nn2)c1F", "note": "[Example I-6]", "EC50": 559}, {"smiles": "CCCS(=O)(=O)Nc1ccc(F)c(-n2cc(-c3cccnc3)nn2)c1F", "note": "[Example I-15]", "EC50": 1820}, {"smiles": "CC(C)S(=O)(=O)Nc1ccc(F)c(-n2cc(-c3cncc(N4CCN(C(C)(C)C)CC4)c3)nn2)c1F", "note": "[Example I-20]", "EC50": 245}, {"smiles": "COc1cncc(-c2cn(-c3c(F)ccc(NS(=O)(=O)CC(C)C)c3F)nn2)c1", "note": "[Example I-25]", "EC50": 158}, {"smiles": "CCCS(=O)(=O)Nc1ccc(F)c(-n2cc(-c3cncc(N4CCN(CC5CC5)CC4)c3)nn2)c1F", "note": "[Example I-10]", "EC50": 107}, {"smiles": "CCCS(=O)(=O)Nc1ccc(F)c(-n2cc(-c3cncc(N4CCN(C5CCC5)CC4)c3)nn2)c1F", "note": "[Example I-59]", "EC50": 98}, {"smiles": "CCCS(=O)(=O)Nc1ccc(F)c(-n2cc(-c3cncc(OCCOC)c3)nn2)c1F", "note": "[Example I-36]", "EC50": 589}, {"smiles": "CCCS(=O)(=O)Nc1ccc(F)c(-n2cc(-c3cncc(N4CCN(CC5CC5)CC4)c3)nn2)c1Cl", "note": "[Example I-64]", "EC50": 38}, {"smiles": "CCCS(=O)(=O)Nc1ccc(F)c(-n2cc(-c3cncc(OCC)c3)nn2)c1F", "note": "[Example I-35]", "EC50": 358}, {"smiles": "CCCS(=O)(=O)Nc1ccc(F)c(-n2cc(-c3cncc(N4CCNCC4)c3)nn2)c1F", "note": "[Example I-50]", "EC50": 493}, {"smiles": "C#CCN1CCN(c2cncc(-c3cn(-c4c(F)ccc(NS(=O)(=O)c5ccoc5)c4Cl)nn3)c2)CC1", "note": "[Example I-72]", "EC50": 10}, {"smiles": "CC(C)(C)N1CCN(c2cncc(-c3cn(-c4c(F)ccc(NS(=O)(=O)c5ccoc5)c4Cl)nn3)c2)CC1", "note": "[Example I-69]", "EC50": 5}, {"smiles": "COc1cncc(-c2cn(-c3c(F)ccc(NS(=O)(=O)c4ccoc4)c3Cl)nn2)c1", "note": "[Example I-55]", "EC50": 32}, {"smiles": "C#CCN1CCN(c2cncc(-c3cn(-c4c(F)ccc(NS(=O)(=O)CCC)c4F)nn3)c2)CC1", "note": "[Example I-53]", "EC50": 68}, {"smiles": "COc1cncc(-c2cn(-c3c(Cl)ccc(NS(=O)(=O)C(C)C)c3F)nn2)c1", "note": "[Example I-41]", "EC50": 403}, {"smiles": "CCCS(=O)(=O)Nc1ccc(F)c(-n2cc(-c3cncc(C)c3)nn2)c1F", "note": "[Example I-4]", "EC50": 535}, {"smiles": "CCCS(=O)(=O)Nc1ccc(F)c(-n2cc(-c3cncc(N4CCN(C(C)(C)C)CC4)c3)nn2)c1Cl", "note": "[Example I-76]", "EC50": 65}, {"smiles": "CCCS(=O)(=O)Nc1ccc(F)c(-n2cc(-c3cncc(OCCN(C)C(C)C)c3)nn2)c1F", "note": "[Example I-37]", "EC50": 928}, {"smiles": "CCCS(=O)(=O)Nc1ccc(F)c(-n2cc(-c3cncc(F)c3)nn2)c1F", "note": "[Example I-17]", "EC50": 1260}, {"smiles": "COc1cncc(-c2cn(-c3c(F)ccc(NS(=O)(=O)c4ccco4)c3F)nn2)c1", "note": "[Example I-47]", "EC50": 159}, {"smiles": "CCCS(=O)(=O)Nc1ccc(F)c(-n2cc(-c3cncc(N4CCN(C5CC5)CC4)c3)nn2)c1Cl", "note": "[Example I-65]", "EC50": 32}, {"smiles": "CC(C)N1CCN(c2cncc(-c3cn(-c4c(F)ccc(NS(=O)(=O)c5ccoc5)c4F)nn3)c2)CC1", "note": "[Example I-61]", "EC50": 10}]}]}
